Legend:
Format in all cases: in vivo
[1] = tested on: cotton worm (Spodoptera litura); assay: Test Method 3: cotton worm, sprayed cabbage seedling, second-instar larvae; conditions: 500 ppm, spray 20 mL/seedling, 5 days
Procedure: (§1) Each test compound is made to a formulation according to a similar method to that described in the Formulation Example 1, and thereto is added water containing 0.03 v/v % of Shindain (registered trademark) to prepare a diluted solution containing a prescribed concentration of the test compound.
(§2) Cabbage (Brassicae oleracea) seedling (on the developmental stage of the second to third true leaf) is planted in a container, and the diluted solutions are sprayed to the seedling at a ratio of 20 mL/seedling. Thereafter, the aerial part of the seedling is cut out and then is installed into a container in which a filter paper is placed at the bottom of the container. Five of second-instar larvae of cotton worm (Spodoptera litura) are released into the container. After 5 days, the number of the surviving insects is counted, and the mortality of insects is calculated by the following equation.
(§3) Mortality(%)=(1−Number of surviving insects/5)×100

[2] = tested on: diamondback moth (Plutella xylostella); assay: Test Method 4: diamondback moth, sprayed cabbage seedling, second-instar larvae; conditions: 500 ppm, spray 20 mL/seedling, 5 days
Procedure: as §1
as §2, with “diamondback moth (Plutella xylostella)” for “cotton worm (Spodoptera litura)”
as §3

[3] = tested on: housefly (Musca domestica); assay: Test Method 8: housefly female adults, coated glass vial; conditions: 40 mg/m^2 coated vial, 1 day
Procedure: An acetone solution which is adjusted to 800 ppm of each test compound is poured into a 20 mL glass vial, and the test compound is coated uniformly on inner face of the vial so as to 40 mg/m^2 of the test compound treated, and the vial is then dried.
5 housefly (Musca domestica) female adults are released into the treated vial, and the vial is then covered with lid. After the prescribed time, the state of the housefly is examined, and the mortality is calculated by the following equation.
(§4) Mortality(%)=(Number of dead insects/Number of tested insects)×100

[4] = tested on: Western corn rootworm (Diabrotica virgifera virgifera); assay: Test Method 5: Western corn rootworm, immersed corn seedling; conditions: 200 ppm; corn seedling immersed 30 seconds; second-instar larvae; 5 days
Procedure: Each 1 mg of the test compounds is dissolved in 50 μL of a mixed solution consisting of 5% of polyoxyethylene sorbitan mono-cocoate and 95% of acetone by volume ratio. Thereto is added water containing 0.03% by volume of Shindain (registered trademark) to prepare a diluted solution containing a prescribed concentration of the test compound.
A young seedling of corn (Zea mays) is immersed into the diluted solution for 30 seconds. Thereafter, two seedlings are installed in a plastic petri dish ([…]), and 10 of second-instar larvae of Western corn rootworm (Diabrotica virgifera virgifera) are released into the dish. After 5 days, the number of the dead insects is counted, and the mortality of insects is calculated by the following equation.
Mortality(%)=(Number of dead insects/10)×100

[5] = tested on: cotton aphids (Aphis gossypii); assay: Test Method 11: cotton aphid, foliar spray on cucumber seedling (Formulation Example 5); conditions: 200 ppm; foliar spray 10 mL/seedling; 5 days after spraying
Procedure: Each test compound is made to a formulation according to a similar method to that described in the Formulation Example 5, and thereto is added water containing 0.03 v/v % of Shindain (registered trademark) to prepare a diluted solution containing a prescribed concentration of the test compound.
(§5) Cucumber (Cucumis sativus) seedling (on the developmental stage of the second true leaf) is planted in a container and approximately 30 cotton aphids (Aphis gossypii) (all developmental stages of life) are released onto the leaves of the cucumber. After 1 day, the diluted solutions are sprayed to the seedling at a ratio of 10 mL/seedling. Further, after 5 days, the number of the surviving insects is examined and the controlling value is calculated by the following equation.
Controlling value (%)={1−(Cb×Tai)/(Cai×)}×100
wherein the symbols in the formula represent the following descriptions. • Cb: Number of the test insects in untreated group; • Cai: Number of the surviving insects at the time of the investigation in untreated group; • Tb: Number of the test insects in treated group; • Tai: Number of the surviving insects at the time of the investigation in treated group; • Here the “untreated group” represents a group where the similar treatment procedure to that of the treated group except not using the test compound is done.

[6] = tested on: common house mosquito (Culex pipiens pallens); assay: Test Method 12: common house mosquito larvae in diluted solution; conditions: 3.5 ppm; last instar larvae; 1 day
Procedure: Each test compound is formulated to a test formulation according to a similar method to that described in the Formulation Example 1, and water is added in preparing for a diluted solution containing a prescribed concentration of the test compound.
Into the diluted solution, 30 last instar larvae of common house mosquito (Culex pipiens pallens) are released, and after 1 day, the state of the house mosquito larvae is examined, and the mortality is calculated by the following equation.
as §4

[7] = tested on: cotton aphids (Aphis gossypii); assay: Test Method 1: cotton aphid, foliar spray on cucumber seedling (Formulation Example 1); conditions: 500 ppm; foliar spray 10 mL/seedling; 5 days after spraying
Procedure: as §1, §5
Controlling value(%)={1−(Cb×Tai)/(Cai×Tb)}×100
wherein the symbols in the formula represent the following descriptions. • Cb: Number of the test insects in untreated group; • Cai: Number of the surviving insects at the time of the investigation in untreated group; • Tb: Number of the test insects in treated group; • Tai: Number of the surviving insects at the time of the investigation in treated group;
Here the “untreated group” represents a group where the similar treatment procedure to that of the treated group except not using the test compound is done.

Compound	mortality [1] [%]	mortality [2] [%]	mortality [3] [%]	mortality [4] [%]	controlling value [5] [%]	mortality [6]	controlling value [7] [%]
CCS(=O)(=O)c1c(N2CCn3nc(OC(F)F)cc3C2=O)nc2ccc(I)cn12 [compound 3]	≥ 80	≥ 80	≥ 80	≥ 80	≥ 90	greater than 90%	–
CCS(=O)(=O)c1cc(C2CC2)cnc1N1CCn2nc(OC(F)F)cc2C1=O [compound 6]	≥ 80	≥ 80	–	≥ 80	≥ 90	greater than 90%	≥ 90
CCS(=O)(=O)c1cc(Br)cnc1N1CCn2nc(C(F)(F)F)cc2C1=O [compound 7]	–	–	–	≥ 80	≥ 90	greater than 90%	≥ 90
CCS(=O)(=O)c1cc(Br)cnc1N1CCn2nc(OC(F)F)cc2C1=O [compound 8]	–	≥ 80	–	–	≥ 90	–	≥ 90
CCS(=O)(=O)c1cc(-c2ccc(F)cc2)cnc1N1CCn2nc(C(F)(F)F)cc2C1=O [compound 9]	≥ 80	≥ 80	–	≥ 80	≥ 90	–	≥ 90
CCS(=O)(=O)c1cc(-c2ccc(Cl)cc2)cnc1N1CCn2nc(C(F)(F)F)cc2C1=O [compound 11]	≥ 80	≥ 80	≥ 80	≥ 80	≥ 90	–	≥ 90
CCS(=O)(=O)c1cc(-c2cc(Cl)cc(Cl)c2)cnc1N1CCn2nc(C(F)(F)F)cc2C1=O [compound 13]	≥ 80	≥ 80	–	–	–	greater than 90%	≥ 90
CCS(=O)(=O)c1cc(-c2ccc(Cl)cc2)cnc1N1CCn2nc(OC(F)F)cc2C1=O [compound 16]	–	–	–	–	≥ 90	–	–
CCS(=O)(=O)c1cc(-c2ccc(F)cc2)cnc1N1CCn2nc(OC(F)F)cc2C1=O [compound 19]	≥ 80	–	–	–	≥ 90	greater than 90%	≥ 90
CCS(=O)(=O)c1cc(-c2cccc(C#N)n2)cnc1N1CCn2nc(C(F)(F)F)cc2C1=O [compound 23]	–	–	–	–	–	greater than 90%	≥ 90
CCS(=O)(=O)c1cc(-c2cc(Cl)ccn2)cnc1N1CCn2nc(C(F)(F)F)cc2C1=O [compound 27]	–	≥ 80	–	–	–	greater than 90%	–
CCS(=O)(=O)c1c(N2CCn3nc(Br)cc3C2=O)nc2ccc(I)cn12 [compound 46]	–	–	–	–	≥ 90	–	–

Source: patent US20260363245A1, “HETEROCYCLIC COMPOUND AND HARMFUL ARTHROPOD CONTROL COMPOSITION CONTAINING SAME” (SUMITOMO CHEMICAL COMPANY, LIMITED, priority 2022, published 2026)
